Data on six compounds can be found in BindingDB's records for doi:10.1021/acs.jmedchem.9b00742 (Leiden University, 2019).

For assay [1], the target named is T1, C-C chemokine receptor type 2 (Homo sapiens, UniProt P41597). Description: Antagonist activity at CCR2b in human THP1 cells assessed as inhibition of human MCP1 induced calcium flux by fluo-4 dye based fluorescence assay. For orientation: A change in cytosolic calcium serves as a functional read-out for many receptors and channels.
The target in assay [2] is T1, C-C chemokine receptor type 2. Nature of the assay: Non-competitive insurmountable antagonist activity at human CCR2 expressed in human U2OS cell membranes assessed as pEC50 for CCL2-stimulated [35S]GTPgammaS binding at 10 nM preincubated for 30 mins followed by [35S]GTPgammaS addition and measured after 90 mins (Rvb = 8.10 +/- 0.06 No_unit). (In general: GTPγS resists hydrolysis and so accumulates on activated G proteins.)

Assay [3] deals with T2, C-C chemokine receptor type 5 (Homo sapiens, UniProt P51681). Nature of the assay: Non-competitive insurmountable antagonist activity at human CCR5 expressed in human U2OS cell membranes assessed as pEC50 for CCL3-stimulated [35S]GTPgammaS binding at 100 nM preincubated for 30 mins followed by [35S]GTPgammaS addition and measured after 90 mins (Rvb = 8.42 +/- 0.06 No_unit).
T2 sequence (P51681 whole entry): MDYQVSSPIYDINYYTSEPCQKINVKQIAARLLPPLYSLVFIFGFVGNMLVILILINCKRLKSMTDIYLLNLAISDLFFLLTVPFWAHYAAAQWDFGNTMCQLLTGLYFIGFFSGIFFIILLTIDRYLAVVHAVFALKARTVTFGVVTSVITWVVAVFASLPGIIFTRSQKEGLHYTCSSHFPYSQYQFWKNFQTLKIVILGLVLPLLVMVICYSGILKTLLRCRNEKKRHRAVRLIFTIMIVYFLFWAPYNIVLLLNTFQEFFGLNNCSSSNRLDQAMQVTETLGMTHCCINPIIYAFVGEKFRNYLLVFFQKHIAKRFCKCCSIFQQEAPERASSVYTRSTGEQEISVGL

In assay [4] the target is T2, C-C chemokine receptor type 5. Description: Non-competitive insurmountable antagonist activity at human CCR5 expressed in human U2OS cell membranes assessed as EC50 for CCL3-stimulated [35S]GTPgammaS binding at 1000 nM preincubated for 30 mins followed by [35S]GTPgammaS addition and measured after 90 mins (Rvb = 4 nM).
Assay [5] deals with T1, C-C chemokine receptor type 2. Nature of the assay: Non-competitive insurmountable antagonist activity at human CCR2 expressed in human U2OS cell membranes assessed as pEC50 for CCL2-stimulated [35S]GTPgammaS binding at 30 nM preincubated for 30 mins followed by [35S]GTPgammaS addition and measured after 90 mins (Rvb = 8.10 +/- 0.06 No_unit).
Assay [6] has the same target. Nature of the assay: Non-competitive insurmountable antagonist activity at human CCR2 expressed in human U2OS cell membranes assessed as EC50 for CCL2-stimulated [35S]GTPgammaS binding at 10 nM preincubated for 30 mins followed by [35S]GTPgammaS addition and measured after 90 mins (Rvb = 8 nM).
The target in assay [7] is T2, C-C chemokine receptor type 5. Nature of the assay: Non-competitive insurmountable antagonist activity at human CCR5 expressed in human U2OS cell membranes assessed as pEC50 for CCL3-stimulated [35S]GTPgammaS binding at 300 nM preincubated for 30 mins followed by [35S]GTPgammaS addition and measured after 90 mins (Rvb = 8.42 +/- 0.06 No_unit).
For assay [8] the target is unchanged. Nature of the assay: Non-competitive insurmountable antagonist activity at human CCR5 expressed in human U2OS cell membranes assessed as EC50 for CCL3-stimulated [35S]GTPgammaS binding at 100 nM preincubated for 30 mins followed by [35S]GTPgammaS addition and measured after 90 mins (Rvb = 4 nM).
Assay [9] has the same target. Nature of the assay: Non-competitive insurmountable antagonist activity at human CCR5 expressed in human U2OS cell membranes assessed as EC50 for CCL3-stimulated [35S]GTPgammaS binding at 300 nM preincubated for 30 mins followed by [35S]GTPgammaS addition and measured after 90 mins (Rvb = 4 nM).
Assay [10] concerns the target T1, C-C chemokine receptor type 2. Description: Non-competitive insurmountable antagonist activity at human CCR2 expressed in human U2OS cell membranes assessed as pEC50 for CCL2-stimulated [35S]GTPgammaS binding at 100 nM preincubated for 30 mins followed by [35S]GTPgammaS addition and measured after 90 mins (Rvb = 8.10 +/- 0.06 No_unit).
The target is the same in assay [11]. Description: Non-competitive insurmountable antagonist activity at human CCR2 expressed in human U2OS cell membranes assessed as pEC50 for CCL2-stimulated [35S]GTPgammaS binding at 1 nM preincubated for 30 mins followed by [35S]GTPgammaS addition and measured after 90 mins (Rvb = 8.10 +/- 0.06 No_unit).
Assay [12] has the same target. Description: Non-competitive insurmountable antagonist activity at human CCR2 expressed in human U2OS cell membranes assessed as EC50 for CCL2-stimulated [35S]GTPgammaS binding at 1 nM preincubated for 30 mins followed by [35S]GTPgammaS addition and measured after 90 mins (Rvb = 8 nM).
The target of assay [13] is T2, C-C chemokine receptor type 5. Description: Non-competitive insurmountable antagonist activity at human CCR5 expressed in human U2OS cell membranes assessed as pEC50 for CCL3-stimulated [35S]GTPgammaS binding at 30 nM preincubated for 30 mins followed by [35S]GTPgammaS addition and measured after 90 mins (Rvb = 8.42 +/- 0.06 No_unit).
Assay [14] deals with T1, C-C chemokine receptor type 2. Nature of the assay: Non-competitive insurmountable antagonist activity at human CCR2 expressed in human U2OS cell membranes assessed as EC50 for CCL2-stimulated [35S]GTPgammaS binding at 3 nM preincubated for 30 mins followed by [35S]GTPgammaS addition and measured after 90 mins (Rvb = 8 nM).
Assay [15] has the same target. Description: Non-competitive insurmountable antagonist activity at human CCR2 expressed in human U2OS cell membranes assessed as pEC50 for CCL2-stimulated [35S]GTPgammaS binding at 3 nM preincubated for 30 mins followed by [35S]GTPgammaS addition and measured after 90 mins (Rvb = 8.10 +/- 0.06 No_unit).
Assay [16] shares this target. Description: Displacement of [3H]-CCR2-RA-[R] from human CCR2 expressed in human U2OS cells incubated for 2 hrs by scintillation spectrometric method. (In general: Displacement assays read how much labelled ligand stays bound in the presence of the test substance.)

T1 sequence (P41597 whole entry): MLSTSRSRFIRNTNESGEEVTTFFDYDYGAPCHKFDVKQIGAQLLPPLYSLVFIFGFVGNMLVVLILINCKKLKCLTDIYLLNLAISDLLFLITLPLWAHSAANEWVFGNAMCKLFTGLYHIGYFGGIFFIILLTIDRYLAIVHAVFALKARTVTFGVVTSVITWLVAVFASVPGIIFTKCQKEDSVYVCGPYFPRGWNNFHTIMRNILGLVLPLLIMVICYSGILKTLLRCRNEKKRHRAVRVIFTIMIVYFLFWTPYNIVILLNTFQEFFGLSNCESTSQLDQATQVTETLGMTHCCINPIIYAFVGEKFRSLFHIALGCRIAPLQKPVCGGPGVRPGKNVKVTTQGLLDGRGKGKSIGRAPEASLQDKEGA

With `O=c1c(Cc2cccc(Cl)c2)c(C2CC2)[nH]c2ncnn12`, in [1], the IC50 came to 16 nM.
Turning to `CC(C)c1[nH]c2nc(N)nn2c(=O)c1Cc1cccc(Cl)c1Cl`, the “EC50” value in assay [2] worked out at 13 nM; in assay [3], 4.5 nM; in assay [4], 9.0 nM; in [5], 25 nM; in [6], 13 nM; in assay [7], 7.2 nM. Further, the “EC50” value in assay [8] stood at 5.0 nM; in assay [9] it was 8.0 nM; in assay [10] it was 54 nM.
As for `CC(C)c1[nH]c2nc(N)nn2c(=O)c1Cc1ccc(Cl)c(Br)c1`, the “EC50” value in [2] is reported as 135 nM; in assay [3], 6.2 nM; in [11], 12 nM; in assay [6], 148 nM; in [7] it was 8.9 nM; in [12], 13 nM. For the same compound, the “EC50” value was determined as 5.0 nM in [13]; 6.0 nM in [8]; 9.0 nM in assay [9]; 32 nM in assay [14]; 30 nM in [15].
`Nc1nc2[nH]c(C3CC3)c(Cc3cccc(F)c3)c(=O)n2n1` returned a Ki in [16] of 2.95 nM.
Still for that read-out and setting: the result for `Nc1nc2[nH]c(-c3ccccc3)c(Cc3cccc(Cl)c3)c(=O)n2n1` reads 22.9 nM; that for `Nc1nc2[nH]c(C3CC3)c(Cc3ccc(Cl)c(Cl)c3)c(=O)n2n1`, 0.447 nM.

As usually defined, the IC50 is the midpoint of a concentration-inhibition curve. The EC50 is the concentration that produces a half-maximal response. A word on the Ki: it is a measure of affinity in units of concentration, obtained from inhibition or displacement. A high value points to a looser hold on the target.
